Source: patent US11814364B2, “Pyridine N-oxide derivatives useful as factor XIa inhibitors” (Janssen Pharmaceutica NV, priority 2021, dated 2023)

target: human plasma kallikrein (Homo sapiens, UniProt P03952); assay: Kallikrein inhibition FLINT assay with quenched AMC peptide substrate Z-Gly-Pro-Arg-AMC (end point EP or kinetic KIN reads); type: biochemical; settings: kinetic reads at 5 min intervals over 30 min; read-out: Kallikrein (KIN) IC50
Outline: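 Enzyme and compound were preincubated 30 min before adding 50 μM AMC substrate in pH 7.5 Tris/NaCl/CaCl2/BSA/CHAPS buffer. AMC release was read at 30 min endpoint or every 5 min.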

Sequence of human plasma kallikrein (P03952 391-638 limits assumed): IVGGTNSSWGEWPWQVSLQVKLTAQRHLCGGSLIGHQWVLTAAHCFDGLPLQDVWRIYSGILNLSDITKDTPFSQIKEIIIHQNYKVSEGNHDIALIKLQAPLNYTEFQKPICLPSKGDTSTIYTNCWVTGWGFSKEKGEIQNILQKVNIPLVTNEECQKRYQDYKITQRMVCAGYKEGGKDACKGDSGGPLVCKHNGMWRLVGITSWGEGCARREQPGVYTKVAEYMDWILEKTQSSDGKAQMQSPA
Sequence of human plasma kallikrein (P03952 20-390 partner limits assumed): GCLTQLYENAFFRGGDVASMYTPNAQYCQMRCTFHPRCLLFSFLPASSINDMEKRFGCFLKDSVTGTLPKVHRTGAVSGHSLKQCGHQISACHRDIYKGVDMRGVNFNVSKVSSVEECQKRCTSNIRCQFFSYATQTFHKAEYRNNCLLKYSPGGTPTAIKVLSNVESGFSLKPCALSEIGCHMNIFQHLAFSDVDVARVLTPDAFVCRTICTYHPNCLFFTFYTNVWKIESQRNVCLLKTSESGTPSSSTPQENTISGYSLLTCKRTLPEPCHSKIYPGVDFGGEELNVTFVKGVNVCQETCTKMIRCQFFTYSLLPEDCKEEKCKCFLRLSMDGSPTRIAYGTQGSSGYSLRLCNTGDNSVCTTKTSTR

Structure (SMILES) | IC50
[O-][n+]1cc(-c2c(-n3cnnn3)ccc(Cl)c2F)ccc1[C@@H](CCOC(F)F)n1cc(-c2c(F)cncc2Cl)cn1 [Example P583] | 1.5 nM
Cn1ccc(CC(c2ccc(-c3c(-n4cnnn4)ccc(Cl)c3F)c[n+]2[O-])n2cc(-c3ccnc(C(F)(F)F)c3)cn2)n1 (stereo not drawn) [Example P377] | 2.1 nM
CCC(c1cc(OC)c(-c2cc(Cl)ccc2-n2cc(C(F)(F)F)nn2)c[n+]1[O-])n1cc(-c2ncnn2C(F)F)cn1 (single isomer, unassigned) [Example P923] | 38.5 nM
COc1cc(C(CC2CC2C(N)=O)n2cc(-c3ccc(N)nc3C)cn2)[n+]([O-])cc1-c1c(-n2cnnn2)ccc(Cl)c1F (stereo not drawn) [Example P247] | 5.8 nM
Cc1cc(-c2cnn(C(Cn3cc(F)cn3)c3ccc(-c4c(-n5cnnn5)ccc(Cl)c4F)c[n+]3[O-])c2)ccn1 (stereo not drawn) [Example P474] | 13.2 nM
CC1CC1CC(c1ccc(-c2c(-n3cnnn3)ccc(Cl)c2F)c[n+]1[O-])n1cc(-c2ncnn2C(F)F)cn1 (stereo not drawn) [Example P764] | > 100 nM
Cn1cc(C[C@@H](c2ccc(-c3c(-n4cnnn4)ccc(Cl)c3F)c[n+]2[O-])n2cc(-c3ccnc(C(F)(F)F)c3)cn2)nn1 [Example P737] | 818 nM
[O-][n+]1cc(-c2c(-n3cc(Cl)nn3)ccc(Cl)c2F)ccc1[C@@H](CCOC(F)F)n1cc(-c2cnnn2C(F)F)cn1 [Example P668] | 39.2 nM
Cn1nncc1-c1cnn([C@H](Cc2ccc(C(F)(F)F)nc2)c2ccc(-c3c(-n4cc(Cl)nn4)ccc(Cl)c3F)c[n+]2[O-])c1 [Example P772] | 42.3 nM
COC(=O)Nc1ccc(-c2cnn(C(CC3CC3C(N)=O)c3ccc(-c4c(-n5cnnn5)ccc(Cl)c4F)c[n+]3[O-])c2)cc1 (stereo not drawn) [Example P249] | 668 nM
COC(=O)Nc1ccc(-c2cnn(C(CC3CCC(C)(C)CC3)c3ccc(-c4c(-n5cnnn5)ccc(Cl)c4F)c[n+]3[O-])c2)cc1 (stereo not drawn) [Example P122] | 260 nM
Cn1nnc(F)c1-c1cnn([C@H](CCOC(F)F)c2ccc(-c3c(-n4cnnn4)ccc(Cl)c3F)c[n+]2[O-])c1 [Example P724] | 8.5 nM
O=c1[nH]c(-c2ccc(-c3cnn(C(CCOC(F)F)c4ccc(-c5c(-n6cc(C(F)(F)F)nn6)ccc(Cl)c5F)c[n+]4[O-])c3)cc2)no1 (stereo not drawn) [Example P903] | 11.5 nM
COC(=O)Nc1ccc(-c2cnn(C(CC3CCCO3)c3ccc(-c4c(-n5cnnn5)ccc(Cl)c4F)c[n+]3[O-])c2)cc1 (stereo not drawn) [Example P203] | 63.3 nM
[O-][n+]1cc(-c2c(-n3cc(C(F)(F)F)nn3)ccc(Cl)c2F)ccc1C(Cc1ccn(C(F)F)n1)n1cc(-c2ncnn2C(F)F)cn1 (single isomer, unassigned) [Example P837] | 48.3 nM
Cn1ccc(C[C@H](c2ccc(-c3cc(Cl)ccc3C#N)c[n+]2[O-])n2cc(-c3ccc(C(=O)O)cc3)cn2)n1 [Example Q47] | 57.6 nM
CN(CC(c1ccc(-c2c(-n3cnnn3)ccc(Cl)c2F)c[n+]1[O-])n1cc(-c2ccncc2)cn1)C(=O)Cc1ccccc1 (stereo not drawn) [Example P299] | 24.9 nM
O=C(O)c1ccc(-c2cnn(C(CC3CC3)c3ccc(-c4c(C(F)F)ccc(Cl)c4F)c[n+]3[O-])c2)cc1 (single isomer, unassigned) [Example Q13] | 97.1 nM
CN(CC(c1ccc(-c2c(-n3cnnn3)ccc(Cl)c2F)c[n+]1[O-])n1cc(-c2ccnc(C(F)(F)F)c2)cn1)C(=O)C1CC1 (single isomer, unassigned) [Example P428] | 64.1 nM
[O-][n+]1cc(-c2c(-n3cnnn3)ccc(Cl)c2F)ccc1[C@@H](Cc1nccs1)n1cc(-c2ccnn2C(F)F)cn1 [Example P718] | 11.1 nM
Cn1ncc(O)c1-c1cnn(C(CCOC(F)F)c2ccc(-c3c(-n4cc(Cl)nn4)ccc(Cl)c3F)c[n+]2[O-])c1 (stereo not drawn) [Example P747] | 26.2 nM
NC(=O)c1ccnn1CC(c1ccc(-c2c(C(F)F)ccc(Cl)c2F)c[n+]1[O-])n1cc(-c2ccnc(C(F)(F)F)c2)cn1 (single isomer, unassigned) [Example Q27] | 4.7 nM
O=C(O)c1ccc(-c2cnn(C(Cc3ccn(C(F)F)n3)c3ccc(-c4c(-n5cc(C(F)(F)F)nn5)ccc(Cl)c4F)c[n+]3[O-])c2)cc1F (single isomer, unassigned) [Example P931] | 2.5 nM
O=C(O)c1ccc(-c2cnn(C(CC3OCCc4ccccc43)c3ccc(-c4cc(Cl)ccc4-n4cnnn4)c[n+]3[O-])c2)cc1 (stereo not drawn) [Example P128] | 475 nM
Nc1ccc(-c2cnn(C(Cn3cc(F)cn3)c3ccc(-c4c(-n5cnnn5)ccc(Cl)c4F)c[n+]3[O-])c2)c(F)n1 (single isomer, unassigned) [Example P416] | 3.3 nM
[O-][n+]1cc(-c2c(-n3cnnn3)ccc(Cl)c2F)ccc1C(CCOC(F)F)n1cc(-c2ccnc(C(F)(F)F)n2)cn1 (single isomer, unassigned) [Example P401] | 18.6 nM
O=C(O)c1ccc(-c2cnn(C(Cc3ccn(C(F)F)n3)c3ccc(-c4c(-n5cc(Cl)nn5)ccc(Cl)c4F)c[n+]3[O-])c2)cc1 (single isomer, unassigned) [Example P898] | 2.5 nM

Structure (SMILES) | IC50
O=C(c1cnn(CC(c2ccc(-c3c(-n4cnnn4)ccc(Cl)c3F)c[n+]2[O-])n2cc(-c3ccnc(C(F)(F)F)c3)cn2)c1)N1CCCCC1 (single isomer, unassigned) [Example P411] | 16 nM
[O-][n+]1cc(-c2c(-n3cnnn3)ccc(Cl)c2F)ccc1C(CC1CC1)n1cc(-c2ccc3c(c2)OCCO3)cn1 (stereo not drawn) [Example P271] | 252 nM
COC(=O)Nc1ccc(-c2cnn(C(CC(C)OC)c3ccc(-c4c(-n5cnnn5)ccc(Cl)c4F)c[n+]3[O-])c2)cc1 (single isomer, unassigned) [Example P228] | 1290 nM
O=C1CCCN1CC(c1ccc(-c2c(-n3cnnn3)ccc(Cl)c2F)c[n+]1[O-])n1cc(-c2cc[n+]([O-])c(C(F)F)c2)cn1 (stereo not drawn) [Example P365] | 30.1 nM
CCC(c1cc(OC)c(-c2cc(Cl)ccc2C#N)c[n+]1[O-])n1cc(-c2ncnn2C(F)F)cn1 (stereo not drawn) [Example Q54] | 753 nM
[O-][n+]1cc(-c2c(-n3cnnn3)ccc(Cl)c2F)ccc1C(Cn1ccc(C2CCOCC2)n1)n1cc(-c2ccnc(C(F)(F)F)c2)cn1 (stereo not drawn) [Example P419] | 36.3 nM
[O-][n+]1cc(-c2c(-n3cnnn3)ccc(Cl)c2F)ccc1C(Cn1cc(F)cn1)n1cc(-c2ccnn2C(F)F)cn1 (single isomer, unassigned) [Example P644] | 14.5 nM
NC(=O)c1ccc(-c2cnn(C(Cc3ncon3)c3ccc(-c4c(-n5cc(C(F)(F)F)nn5)ccc(Cl)c4F)c[n+]3[O-])c2)cc1F (stereo not drawn) [Example P915] | 20.2 nM
NC(=O)c1ccc(-c2cnn(C(Cc3ccn(C(F)F)n3)c3ccc(-c4c(-n5cc(Cl)nn5)ccc(Cl)c4F)c[n+]3[O-])c2)cc1 (single isomer, unassigned) [Example P911] | 0.2 nM
O=C(O)c1ccc(-c2cnn(C(Cc3ccc(Cl)cc3)c3ccc(-c4cc(Cl)ccc4-n4cnnn4)c[n+]3[O-])c2)cc1 (stereo not drawn) [Example P57] | 3.8 nM
COC(=O)Nc1ccc(-c2cnn(C(CC3CC3)c3cc(OC)c(-c4c(-n5cnnn5)ccc(Cl)c4F)c[n+]3[O-])c2)cc1 (stereo not drawn) [Example P93] | 4.5 nM
COc1cc(C(CC2CC2)n2cc(-c3ncnn3C(F)F)cn2)[n+]([O-])cc1-c1cc(Cl)ccc1-n1cnnn1 (single isomer, unassigned) [Example P917] | 3.9 nM
[O-][n+]1cc(-c2c(-n3cc(Cl)nn3)ccc(Cl)c2F)ccc1C(Cn1cccn1)n1cc(-c2cn(C(F)F)nn2)cn1 (single isomer, unassigned) [Example P664] | 380 nM
[O-][n+]1cc(-c2c(-n3cnnn3)ccc(Cl)c2F)ccc1C(CC1CC1)n1cc(-c2cnco2)cn1 (stereo not drawn) [Example P455] | 496 nM
O=C(O)c1ccc(-c2cnn(C(CC(=O)N3CCNCC3)c3ccc(-c4cc(Cl)ccc4-n4cnnn4)c[n+]3[O-])c2)cc1 (stereo not drawn) [Example P90] | 80 nM
[O-][n+]1cc(-c2c(-n3cnnn3)ccc(Cl)c2F)ccc1[C@@H](Cc1ccn(C(F)F)n1)n1cc(-c2ccnn2C(F)F)cn1 [Example P734] | 6.4 nM
Nc1ccc(-c2cnn(C(Cn3cc(CC(=O)N4CCCCC4)cn3)c3ccc(-c4c(-n5cnnn5)ccc(Cl)c4F)c[n+]3[O-])c2)c(F)n1 (stereo not drawn) [Example P471] | 51.7 nM
COc1cc(C(CC2CC2)n2cc(-c3ncnn3C(F)F)cn2)[n+]([O-])cc1-c1cc(Cl)ccc1-n1cc(C(F)(F)F)nn1 (single isomer, unassigned) [Example P940] | 14.2 nM
[O-][n+]1cc(-c2c(-n3cc(Cl)nn3)ccc(Cl)c2F)ccc1[C@H](Cn1cc(F)cn1)n1cc(-c2c(F)cnn2C(F)F)cn1 [Example P634] | 739 nM
NC(=O)c1ccc(-c2cnn([C@H](CCOC(F)F)c3ccc(-c4cc(Cl)ccc4-n4cc(C(F)(F)F)nn4)c[n+]3[O-])c2)cc1F [Example P859] | 28.7 nM
[O-][n+]1ccc(-c2cnn(C(Cc3ccc(F)cc3)c3ccc(-c4c(C(F)F)ccc(Cl)c4F)c[n+]3[O-])c2)cc1 (single isomer, unassigned) [Example Q18] | 5.1 nM
O=C(O)c1ccc(-c2cnn([C@H](CCOC(F)F)c3ccc(-c4c(C(F)F)ccc(Cl)c4F)c[n+]3[O-])c2)cc1 [Example Q35] | 4 nM
Nc1ccc(-c2cnn(C(Cn3cc(F)cn3)c3ccc(-c4c(-n5cnnn5)ccc(Cl)c4F)c[n+]3[O-])c2)c(F)n1 (stereo not drawn) [Example P281] | 2.6 nM
O=C(O)C1CCN(C(=O)C2CC2CC(c2ccc(-c3c(-n4cnnn4)ccc(Cl)c3F)c[n+]2[O-])n2cc(-c3ccccc3)cn2)CC1 (stereo not drawn) [Example P213] | 491 nM
NC(=O)c1ccc(-c2cnn(C(CC3CC3C(=O)N3CCCCC3)c3ccc(-c4c(C(F)F)ccc(Cl)c4F)c[n+]3[O-])c2)cc1 (stereo not drawn) [Example Q37] | 99.1 nM
NC(=O)c1ccc(-c2cnn(C(CC3CC3)c3ccc(-c4c(-n5cc(C(F)(F)F)nn5)ccc(Cl)c4F)c[n+]3[O-])c2)s1 (stereo not drawn) [Example P904] | 123 nM
[O-][n+]1cc(-c2c(-n3cnnn3)ccc(Cl)c2F)ccc1[C@@H](CCOC(F)F)n1cc(-c2scnc2Cl)cn1 [Example P582] | 0.9 nM
